Source: ChEMBL document CHEMBL1201862, “PubChem BioAssay data set” (2004)
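Method: 48-hour compound exposure of cells in 96-well plates, five concentrations, linear interpolation of endpoints. The concentration for 50% growth inhibition is given as GI50.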 Active and inactive are the calls of the source. Cut-off read from the data, not from the text of the source: active = GI50 up to about 1.1 µM and inactive = higher.

Experiments:
Assay in all cases: inhibition of tumour cell growth, NCI panel, 48 h
SF-295 = tested on: SF-295
RPMI-8226 = tested on: RPMI-8226
786-0 = tested on: 786-0
OVCAR-3 = tested on: OVCAR-3
M14 = tested on: M14
A498 = tested on: A498
CAKI-1 = tested on: CAKI-1
KM12 = tested on: KM12
SW-620 = tested on: SW-620
SK-MEL-28 = tested on: SK-MEL-28
HT-29 = tested on: HT-29
MDA-N = tested on: MDA-N
TK-10 = tested on: TK-10
HOP-62 = tested on: HOP-62
OVCAR-8 = tested on: OVCAR-8
HL-60 = tested on: HL-60
UACC-62 = tested on: UACC-62

Structure (SMILES) | GI50 (SF-295) | GI50 (RPMI-8226) | GI50 (786-0) | GI50 (OVCAR-3) | GI50 (M14) | GI50 (A498) | GI50 (CAKI-1) | GI50 (KM12) | GI50 (SW-620) | GI50 (SK-MEL-28) | GI50 (HT-29) | GI50 (MDA-N) | GI50 (TK-10) | GI50 (HOP-62) | GI50 (OVCAR-8) | GI50 (HL-60) | GI50 (UACC-62)
O=C(O)c1ccccc1C1c2ccccc2Oc2ccccc21 | 40.2 µM (inactive) | 54.6 µM (inactive) | 49.5 µM (inactive) | 27.9 µM (inactive) | > 100 µM (inactive) | 27.7 µM (inactive) | 34.1 µM (inactive) | 62.2 µM (inactive) | > 100 µM (inactive) | > 100 µM (inactive) | 74.6 µM (inactive) | 58.6 µM (inactive) | > 100 µM (inactive) | 41.3 µM (inactive) | 96.6 µM (inactive) | 39 µM (inactive) | 25.8 µM (inactive)
CCCCCCNCCCNc1c2ccccc2nc2cccc([N+](=O)[O-])c12 | 0.0188 µM (active) | 0.00247 µM (active) | 0.00948 µM (active) | 0.0171 µM (active) | 0.0119 µM (active) | 0.164 µM (active) | 0.0548 µM (active) | 0.0127 µM (active) | 0.00481 µM (active) | 0.158 µM (active) | 0.00528 µM (active) | 0.0118 µM (active) | 0.0621 µM (active) | 0.0245 µM (active) | 0.012 µM (active) | 0.0151 µM (active) | 0.0279 µM (active)
NNc1nnc(-c2nnc(NN)o2)o1 | > 10 µM (inactive) | > 10 µM (inactive) | > 10 µM (inactive) | > 10 µM (inactive) | > 10 µM (inactive) | > 10 µM (inactive) | > 10 µM (inactive) | > 10 µM (inactive) | > 10 µM (inactive) | > 10 µM (inactive) | > 10 µM (inactive) | > 10 µM (inactive) | > 10 µM (inactive) | > 10 µM (inactive) | > 10 µM (inactive) | > 10 µM (inactive) | > 10 µM (inactive)
CCOC(=O)NC(=S)NN(C)C1=NCC(C)(C)S1 | > 100 µM (inactive) | > 100 µM (inactive) | > 100 µM (inactive) | > 100 µM (inactive) |  | > 100 µM (inactive) | > 100 µM (inactive) | > 100 µM (inactive) | > 100 µM (inactive) | > 100 µM (inactive) |  | > 100 µM (inactive) | > 100 µM (inactive) | > 100 µM (inactive) |  | > 100 µM (inactive) | > 100 µM (inactive)
CCOP(=O)(OCC)/C(C#N)=C/c1coc2cc(C)cc(C)c2c1=O | > 100 µM (inactive) | > 100 µM (inactive) | > 100 µM (inactive) | > 100 µM (inactive) | > 100 µM (inactive) | > 100 µM (inactive) | > 100 µM (inactive) | > 100 µM (inactive) | > 100 µM (inactive) | > 100 µM (inactive) | > 100 µM (inactive) | > 100 µM (inactive) |  | > 100 µM (inactive) | > 100 µM (inactive) | > 100 µM (inactive) | 67 µM (inactive)
CC1(C)C/C(=N/O)c2c(nc3ccc4ccccc4c3c2-c2ccc(Cl)cc2)C1 | 10.9 µM (inactive) | 27.2 µM (inactive) | 3.79 µM (inactive) | 12.3 µM (inactive) | 33.5 µM (inactive) | 19.5 µM (inactive) | 13.5 µM (inactive) | 42 µM (inactive) | 18.3 µM (inactive) | 31.3 µM (inactive) | 15.4 µM (inactive) | 25.1 µM (inactive) | 16.1 µM (inactive) | 23.2 µM (inactive) | 12.5 µM (inactive) | 9.14 µM (inactive) | 17.3 µM (inactive)
CC1OC(O[C@@H]2OC=C(C=O)[C@@]3(O)CC[C@H](C)[C@@H]23)C(O)C(O)C1O (stereo partly specified) | > 100 µM (inactive) | > 100 µM (inactive) | > 100 µM (inactive) | > 100 µM (inactive) | > 100 µM (inactive) | > 100 µM (inactive) | > 100 µM (inactive) | > 100 µM (inactive) | > 100 µM (inactive) | > 100 µM (inactive) | > 100 µM (inactive) | > 100 µM (inactive) | > 100 µM (inactive) | > 100 µM (inactive) | > 100 µM (inactive) | > 100 µM (inactive) | > 100 µM (inactive)
Cc1ccccc1C(=O)N1CCc2c([nH]c3ccccc23)C1 | 29.1 µM (inactive) | 21.2 µM (inactive) | 22.9 µM (inactive) | 27.5 µM (inactive) | 19.4 µM (inactive) | 21.5 µM (inactive) | 24.4 µM (inactive) | 25.9 µM (inactive) | 27.6 µM (inactive) | 28.9 µM (inactive) | 18.8 µM (inactive) | 18.9 µM (inactive) | 28.2 µM (inactive) | 33.8 µM (inactive) | 27 µM (inactive) | 17.5 µM (inactive) | 16 µM (inactive)
CN1C2CCC1CC(CC(=O)NC(c1ccc(F)cc1)c1ccc(F)cc1)C2 (stereo unspecified) | > 100 µM (inactive) | 47 µM (inactive) | 64.7 µM (inactive) | > 100 µM (inactive) | 18 µM (inactive) | > 100 µM (inactive) | > 100 µM (inactive) | > 100 µM (inactive) | > 100 µM (inactive) | 22.5 µM (inactive) | 38.6 µM (inactive) | 41.9 µM (inactive) | > 100 µM (inactive) | > 100 µM (inactive) | > 100 µM (inactive) | 0.242 µM (active) | 
C=C[C@@]1(O)CCCC[C@@H]1CC(Sc1ccccc1)Sc1ccccc1 | 14.7 µM (inactive) | 27.5 µM (inactive) | 22.2 µM (inactive) |  | 19.4 µM (inactive) | 24.4 µM (inactive) | 14.8 µM (inactive) | 16.9 µM (inactive) |  | 25.4 µM (inactive) | 19.4 µM (inactive) | 20.1 µM (inactive) | 15.7 µM (inactive) | 16 µM (inactive) | 17.9 µM (inactive) | 49.8 µM (inactive) | 8.59 µM (inactive)
CC1CCCN(CC(O)CN2CCCc3ccccc32)C1 (stereo unspecified) | > 100 µM (inactive) | > 100 µM (inactive) | > 100 µM (inactive) | > 100 µM (inactive) | > 100 µM (inactive) | > 100 µM (inactive) | > 100 µM (inactive) | > 100 µM (inactive) | > 100 µM (inactive) | > 100 µM (inactive) | 41.6 µM (inactive) | > 100 µM (inactive) | > 100 µM (inactive) | > 100 µM (inactive) | > 100 µM (inactive) | 8.02 µM (inactive) | > 100 µM (inactive)
O/N=C(\CC(O)(C(F)(F)F)C(F)(F)F)c1cccs1 | > 10 µM (inactive) | > 10 µM (inactive) | > 10 µM (inactive) | > 10 µM (inactive) | > 10 µM (inactive) | > 10 µM (inactive) | > 10 µM (inactive) | > 10 µM (inactive) | > 10 µM (inactive) | > 10 µM (inactive) | > 10 µM (inactive) | > 10 µM (inactive) | > 10 µM (inactive) | > 10 µM (inactive) | > 10 µM (inactive) | > 10 µM (inactive) | > 10 µM (inactive)
CC(=O)/C(=C/NC(=S)Nc1ccccc1)C(=O)Nc1ccccc1C | > 100 µM (inactive) | > 100 µM (inactive) | > 100 µM (inactive) | 61.1 µM (inactive) | > 100 µM (inactive) | > 100 µM (inactive) | 40.9 µM (inactive) | > 100 µM (inactive) | > 100 µM (inactive) | > 100 µM (inactive) | 77.8 µM (inactive) | > 100 µM (inactive) | > 100 µM (inactive) | > 100 µM (inactive) | > 100 µM (inactive) | 84.9 µM (inactive) | > 100 µM (inactive)
CC1OC(OC2C(O[C@H]3CC[C@@]4(C)[C@@H](CC[C@@H]5[C@@H]4CC[C@]4(C)[C@@H]6[C@H](C[C@@H]54)O[C@]4(CC[C@@H](C)CO4)[C@H]6C)C3)OC(CO)C(OC3OC(CO)C(O)C(OC4OCC(O)C(O)C4O)C3OC3OCC(O)C(O)C3O)C2O)C(O)C(O)C1O (stereo partly specified) | 0.904 µM (active) | 0.593 µM (active) | 1.64 µM (inactive) | 1.74 µM (inactive) | 0.434 µM (active) | 1.68 µM (inactive) | 0.706 µM (active) | 0.518 µM (active) | 0.251 µM (active) | 0.745 µM (active) | 0.495 µM (active) | 3.73 µM (inactive) | 1.66 µM (inactive) | 0.783 µM (active) | 1.49 µM (inactive) | 0.282 µM (active) | 0.746 µM (active)
COc1ccc(C2(O)C(S(=O)(=O)c3ccc(C)cc3)=Cc3ccc(OC)cc32)cc1 (stereo unspecified) | 28.2 µM (inactive) | > 100 µM (inactive) | 41 µM (inactive) |  |  | 44.5 µM (inactive) |  | > 100 µM (inactive) | > 100 µM (inactive) | 32.7 µM (inactive) | > 100 µM (inactive) | > 100 µM (inactive) | 46.5 µM (inactive) | 21.2 µM (inactive) | 44.3 µM (inactive) | 22 µM (inactive) | 
COc1ccc(/N=N/c2ccc3oc(=O)c(C(=O)Nc4ccc(OC)cc4)cc3c2)cc1 | 21.3 µM (inactive) | 16.3 µM (inactive) | 14.1 µM (inactive) | 19.2 µM (inactive) | 16.9 µM (inactive) | 2.77 µM (inactive) | 25.6 µM (inactive) | 13.8 µM (inactive) | 18.2 µM (inactive) | 15.6 µM (inactive) | 22.6 µM (inactive) | 25.5 µM (inactive) | 22.4 µM (inactive) | 13.9 µM (inactive) | 14.3 µM (inactive) | 5.69 µM (inactive) | 
CCOC(=O)CCCN | > 100 µM (inactive) | > 100 µM (inactive) | > 100 µM (inactive) | > 100 µM (inactive) | > 100 µM (inactive) | > 100 µM (inactive) | > 100 µM (inactive) | > 100 µM (inactive) | > 100 µM (inactive) | > 100 µM (inactive) | > 100 µM (inactive) | > 100 µM (inactive) | > 100 µM (inactive) | > 100 µM (inactive) | > 100 µM (inactive) | > 100 µM (inactive) | 
